From ChEMBL document CHEMBL1201862, “PubChem BioAssay data set” (2004)
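Step 1: Grow cells in 96-well plates. Step 2: Expose to compound for 48 hours at 5 concentrations. Step 3: Interpolate endpoints linearly; if unreached, use highest concentration. The concentration for 50% growth inhibition is given as GI50.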 Calls of active or inactive are those of the source. Rule as the data show it: active = GI50 up to about 1.1 µM and inactive = higher.

Experiments:
Assay in all cases: NCI tumour cell line growth inhibition, 48 h
EKVX = system: EKVX
BT-549 = system: BT-549
MOLT-4 = system: MOLT-4
T47D = system: T47D
PC-3 = system: PC-3
HOP-62 = system: HOP-62
NCI-H226 = system: NCI-H226
COLO 205 = system: COLO 205
HT-29 = system: HT-29
SR = system: SR
NCI-H522 = system: NCI-H522
SK-MEL-28 = system: SK-MEL-28
UO-31 = system: UO-31
ACHN = system: ACHN
UACC-257 = system: UACC-257
CAKI-1 = system: CAKI-1
DU-145 = system: DU-145
NCI-H460 = system: NCI-H460
Hs-578T = system: Hs-578T
OVCAR-8 = system: OVCAR-8
LOX IMVI = system: LOX IMVI
IGROV-1 = system: IGROV-1
SN12C = system: SN12C
HCC 2998 = system: HCC 2998
SF-295 = system: SF-295
HCT-116 = system: HCT-116
Malme-3M = system: Malme-3M
HL-60 = system: HL-60
NCI/ADR-RES = system: NCI/ADR-RES
K562 = system: K562
MDA-MB-435 = system: MDA-MB-435
SNB-75 = system: SNB-75
A549 = system: A549
NCI-H23 = system: NCI-H23
MCF7 = system: MCF7
UACC-62 = system: UACC-62
RXF 393 = system: RXF 393
SNB-19 = system: SNB-19
OVCAR-4 = system: OVCAR-4
MDA-MB-231 = system: MDA-MB-231
OVCAR-5 = system: OVCAR-5
CCRF-CEM = system: CCRF-CEM
SK-MEL-2 = system: SK-MEL-2
HCT-15 = system: HCT-15
SK-MEL-5 = system: SK-MEL-5
MDA-N = system: MDA-N
RPMI-8226 = system: RPMI-8226
SW-620 = system: SW-620
OVCAR-3 = system: OVCAR-3
TK-10 = system: TK-10
SK-OV-3 = system: SK-OV-3
U-251 = system: U-251
SF-268 = system: SF-268
A498 = system: A498
M14 = system: M14
786-0 = system: 786-0
KM12 = system: KM12
HOP-92 = system: HOP-92
SF-539 = system: SF-539

O=C1[C@@H]2[C@@H](CN3CN(c4ccccc4)N=C(c4ccccc4)[C@@]23c2ccccc2)C(=O)N1c1ccccc1
GI50 (EKVX): 4.89 µM (inactive) | GI50 (BT-549): 3.61 µM (inactive) | GI50 (MOLT-4): 2.84 µM (inactive) | GI50 (T47D): 2.58 µM (inactive) | GI50 (PC-3): 6.31 µM (inactive) | GI50 (HOP-62): 14 µM (inactive) | GI50 (NCI-H226): 0.977 µM (active) | GI50 (COLO 205): 1.91 µM (inactive) | GI50 (HT-29): 2.36 µM (inactive) | GI50 (SR): 2.61 µM (inactive) | GI50 (NCI-H522): 0.547 µM (active) | GI50 (SK-MEL-28): 11.3 µM (inactive) | GI50 (UO-31): 1.73 µM (inactive) | GI50 (ACHN): 1.83 µM (inactive) | GI50 (UACC-257): 12 µM (inactive) | GI50 (CAKI-1): 0.863 µM (active) | GI50 (DU-145): 7.14 µM (inactive) | GI50 (NCI-H460): 19.8 µM (inactive) | GI50 (Hs-578T): 20.3 µM (inactive) | GI50 (OVCAR-8): 5.85 µM (inactive) | GI50 (LOX IMVI): 1.68 µM (inactive) | GI50 (IGROV-1): 13.8 µM (inactive) | GI50 (SN12C): 6.58 µM (inactive) | GI50 (HCC 2998): 25.2 µM (inactive) | GI50 (SF-295): 15.1 µM (inactive) | GI50 (HCT-116): 5.07 µM (inactive) | GI50 (Malme-3M): 1.82 µM (inactive) | GI50 (HL-60): 2.25 µM (inactive) | GI50 (NCI/ADR-RES): 17.5 µM (inactive) | GI50 (K562): 2.69 µM (inactive) | GI50 (MDA-MB-435): 5.68 µM (inactive) | GI50 (SNB-75): 16 µM (inactive) | GI50 (A549): 6.11 µM (inactive) | GI50 (NCI-H23): 8.69 µM (inactive) | GI50 (MCF7): 1.94 µM (inactive) | GI50 (UACC-62): 5.98 µM (inactive) | GI50 (RXF 393): 2.95 µM (inactive) | GI50 (SNB-19): 16.7 µM (inactive) | GI50 (OVCAR-4): 2.61 µM (inactive) | GI50 (MDA-MB-231): 4.54 µM (inactive) | GI50 (OVCAR-5): 4.7 µM (inactive) | GI50 (CCRF-CEM): 1.45 µM (inactive) | GI50 (SK-MEL-2): 14.9 µM (inactive) | GI50 (HCT-15): 2.3 µM | GI50 (SK-MEL-5): 16.9 µM (inactive) | GI50 (MDA-N): 5.19 µM (inactive) | GI50 (RPMI-8226): 1.61 µM (inactive) | GI50 (SW-620): 2 µM (inactive) | GI50 (OVCAR-3): 7.73 µM (inactive) | GI50 (TK-10): 1.48 µM (inactive) | GI50 (SK-OV-3): 14 µM (inactive) | GI50 (U-251): 8.99 µM (inactive) | GI50 (SF-268): 18.8 µM (inactive) | GI50 (A498): 18.4 µM (inactive) | GI50 (M14): 2.94 µM (inactive) | GI50 (786-0): 1.88 µM (inactive) | GI50 (KM12): 14.3 µM (inactive) | GI50 (HOP-92): 1.79 µM (inactive)

COC(=O)c1c(O)ccc2c1C1(Cc3ccccc3C1=O)C(O)O2 (stereo unspecified)
GI50 (EKVX): 23.1 µM (inactive) | GI50 (BT-549): 5.09 µM (inactive) | GI50 (MOLT-4): 5.04 µM (inactive) | GI50 (T47D): 18.2 µM (inactive) | GI50 (PC-3): 17.2 µM (inactive) | GI50 (HOP-62): 13.8 µM (inactive) | GI50 (NCI-H226): 9.79 µM (inactive) | GI50 (COLO 205): 35.6 µM (inactive) | GI50 (HT-29): 43.2 µM (inactive) | GI50 (SR): 4.49 µM (inactive) | GI50 (NCI-H522): 3.86 µM (inactive) | GI50 (SK-MEL-28): 36.9 µM (inactive) | GI50 (UO-31): 10.1 µM (inactive) | GI50 (ACHN): 14.9 µM (inactive) | GI50 (UACC-257): > 100 µM (inactive) | GI50 (CAKI-1): 16.1 µM (inactive) | GI50 (DU-145): 24.4 µM (inactive) | GI50 (NCI-H460): 8.85 µM (inactive) | GI50 (Hs-578T): 23.3 µM (inactive) | GI50 (OVCAR-8): 14.5 µM (inactive) | GI50 (LOX IMVI): 19.5 µM (inactive) | GI50 (IGROV-1): 1.94 µM (inactive) | GI50 (SN12C): 16.4 µM (inactive) | GI50 (HCC 2998): 31.2 µM (inactive) | GI50 (SF-295): 42.3 µM (inactive) | GI50 (HCT-116): 15.6 µM (inactive) | GI50 (Malme-3M): 21.7 µM (inactive) | GI50 (HL-60): 4.02 µM (inactive) | GI50 (NCI/ADR-RES): 27.8 µM (inactive) | GI50 (K562): 12.8 µM (inactive) | GI50 (MDA-MB-435): 13.4 µM (inactive) | GI50 (A549): 20.6 µM (inactive) | GI50 (NCI-H23): 33.2 µM (inactive) | GI50 (MCF7): 12.6 µM (inactive) | GI50 (RXF 393): 51.5 µM (inactive) | GI50 (SNB-19): 43.4 µM (inactive) | GI50 (OVCAR-4): 16.2 µM (inactive) | GI50 (MDA-MB-231): 17.3 µM (inactive) | GI50 (OVCAR-5): 17.5 µM (inactive) | GI50 (CCRF-CEM): 2.46 µM (inactive) | GI50 (SK-MEL-2): 28.3 µM (inactive) | GI50 (HCT-15): 13.3 µM | GI50 (SK-MEL-5): 34.3 µM (inactive) | GI50 (MDA-N): 13.7 µM (inactive) | GI50 (RPMI-8226): 2.88 µM (inactive) | GI50 (SF-539): 20.1 µM (inactive) | GI50 (SW-620): 25.1 µM (inactive) | GI50 (OVCAR-3): 18.6 µM (inactive) | GI50 (TK-10): 24.3 µM (inactive) | GI50 (SK-OV-3): 20.2 µM (inactive) | GI50 (U-251): 20.5 µM (inactive) | GI50 (SF-268): 15.6 µM (inactive) | GI50 (A498): > 100 µM (inactive) | GI50 (M14): 17.3 µM (inactive) | GI50 (786-0): 14.1 µM (inactive) | GI50 (KM12): 25.4 µM (inactive) | GI50 (HOP-92): 16.6 µM (inactive)

COc1ccc(CCN2C(=O)C(=O)C(C(=O)c3ccccc3)C2c2ccccc2)cc1OC (stereo unspecified)
GI50 (EKVX): > 100 µM (inactive) | GI50 (BT-549): 51.6 µM (inactive) | GI50 (MOLT-4): > 100 µM (inactive) | GI50 (T47D): 90.8 µM (inactive) | GI50 (PC-3): > 100 µM (inactive) | GI50 (HOP-62): > 100 µM (inactive) | GI50 (COLO 205): > 100 µM (inactive) | GI50 (HT-29): > 100 µM (inactive) | GI50 (SR): > 100 µM (inactive) | GI50 (NCI-H522): > 100 µM (inactive) | GI50 (SK-MEL-28): > 100 µM (inactive) | GI50 (UO-31): > 100 µM (inactive) | GI50 (ACHN): > 100 µM (inactive) | GI50 (UACC-257): > 100 µM (inactive) | GI50 (CAKI-1): > 100 µM (inactive) | GI50 (DU-145): > 100 µM (inactive) | GI50 (NCI-H460): > 100 µM (inactive) | GI50 (Hs-578T): 41.6 µM (inactive) | GI50 (OVCAR-8): > 100 µM (inactive) | GI50 (LOX IMVI): 86.7 µM (inactive) | GI50 (IGROV-1): > 100 µM (inactive) | GI50 (SN12C): 67.8 µM (inactive) | GI50 (HCC 2998): > 100 µM (inactive) | GI50 (SF-295): 44.2 µM (inactive) | GI50 (HCT-116): > 100 µM (inactive) | GI50 (Malme-3M): > 100 µM (inactive) | GI50 (HL-60): > 100 µM (inactive) | GI50 (NCI/ADR-RES): 58.6 µM (inactive) | GI50 (K562): > 100 µM (inactive) | GI50 (MDA-MB-435): > 100 µM (inactive) | GI50 (A549): > 100 µM (inactive) | GI50 (NCI-H23): > 100 µM (inactive) | GI50 (MCF7): > 100 µM (inactive) | GI50 (UACC-62): > 100 µM (inactive) | GI50 (RXF 393): > 100 µM (inactive) | GI50 (SNB-19): > 100 µM (inactive) | GI50 (MDA-MB-231): > 100 µM (inactive) | GI50 (OVCAR-5): > 100 µM (inactive) | GI50 (CCRF-CEM): 56.5 µM (inactive) | GI50 (SK-MEL-2): > 100 µM (inactive) | GI50 (HCT-15): 60.5 µM | GI50 (SK-MEL-5): > 100 µM (inactive) | GI50 (MDA-N): > 100 µM (inactive) | GI50 (RPMI-8226): 51.2 µM (inactive) | GI50 (SF-539): > 100 µM (inactive) | GI50 (SW-620): > 100 µM (inactive) | GI50 (OVCAR-3): > 100 µM (inactive) | GI50 (TK-10): > 100 µM (inactive) | GI50 (SK-OV-3): > 100 µM (inactive) | GI50 (U-251): > 100 µM (inactive) | GI50 (SF-268): > 100 µM (inactive) | GI50 (A498): > 100 µM (inactive) | GI50 (M14): > 100 µM (inactive) | GI50 (786-0): > 100 µM (inactive) | GI50 (KM12): > 100 µM (inactive) | GI50 (HOP-92): 41.7 µM (inactive)
